Assay results published in a melting point compilation (Tetko et al.).

melting point [°C]	SMILES
88 to 90	COC(=O)C(=O)CC(=O)c1c(F)cccc1F
203 to 205	Cc1cc(C)c(C(=O)O)cc1N
70 to 72	Cc1cc(Cl)nc(-c2ccccn2)n1
52 to 54	C1CC(C2CCOCC2)CCN1
40 to 42	CCCCCc1cc(N)on1
220 to 222	O=C(O)Cc1cc2c(cc1Br)OCCO2
175 to 177	Cc1ccc2nc(NCc3ccccc3)sc2c1
69 to 71	CNc1nc(C)cs1
185 to 187	Cc1cc(C)nc(-n2nc(C)cc2NC(=O)CCl)n1
127 to 129	COC(=O)c1n[nH]c(=O)c2ccccc12
72 to 74	CCOc1cc2nccc(Cl)c2cc1OCC
55 to 57	O=S(=O)(Cl)c1ccc(OCC(F)(F)F)nc1
43 to 48	COc1ccc(NC(=O)Oc2ccccc2)c([N+](=O)[O-])c1
43 to 45	CC(C)c1nonc1N
179 to 181	CC(C)(C)CC(=O)Nc1ccc(CC(=O)O)cc1
219 to 221	Cc1nc(O)c2cc(Br)ccc2n1
50 to 52	COC(=O)c1c(Cl)ncnc1Cl
55 to 59	COc1ccc2c(c1)C(=O)CCC2
59 to 61	OCc1nc2ccccc2o1
199 to 201	Cc1ccc(C(N)CC(=O)O)o1 (stereo unspecified)
165 to 167	Cc1cccc(S(N)(=O)=O)n1
51 to 53	CCOC(CC(N)=O)OCC
191 to 193	O=C(O)C1CC(=O)N(c2ccccc2)C1 (stereo unspecified)
141 to 143	NS(=O)(=O)c1ccccn1

melting point [°C]	SMILES
161 to 163	O=C(CCl)NC(=O)Nc1ccccc1
92 to 94	O=c1ccccn1Cc1ccc(Cl)c([N+](=O)[O-])c1
59 to 61	CCCn1c(C)nnc1CO
193 to 195	Cc1ccc(-c2ocnc2C(=O)O)cc1
69 to 71	COc1ccc(Cl)cc1CS(=O)(=O)Cl
133 to 135	Cc1cccc(-n2c(S)nnc2-c2ccccc2)c1
153 to 155	O=C1CCCc2nc(-c3ccccc3F)sc21
74 to 76	c1nnc(C2CC2)n1C1CC1
206 to 208	Cc1oc2c(F)c(F)c(F)c(F)c2c1C(=O)O
210 to 212	N#Cc1n[nH]c2ccc(Cl)cc12
137 to 139	COc1ccc(C(=O)NN)cc1Br
152 to 154	NC(=NO)C12CC3CC(CC(C3)C1)C2
206 to 208	Cc1c(C(=O)O)[nH]c2c1C(=O)CC(C)(C)C2
93 to 95	O=S(=O)(Cl)c1csc(-c2ccc(Cl)cc2)n1
116 to 118	CC(C)(C)OC(=O)NCCc1nc(N)no1
32 to 34	Clc1ccnc2ccsc12
244 to 246	CN1C(=C(C#N)C(=O)CCl)Nc2ccccc21
88 to 90	CN(C(=O)CC#N)C1CCCCC1
118 to 120	CCc1ccc(O)c(C(=O)O)c1
210 to 212	O=Cc1c[nH]nc1-c1ccc2c(c1)OCCO2
125 to 127	O=C(CCl)NCc1ccccc1CN1CCCC1=O
129 to 131	Nc1nccnc1Br
243 to 245	CCn1c2ccccc2c2cc(/C=C/C(=O)O)ccc21
224 to 226	Cc1cc2cc[nH]c(=O)c2n1C

melting point [°C]	SMILES
259 to 261	Cc1cc(=O)[nH]c2c1cnn2C1CCCC1
76 to 78	CCC(C)C(N)C(N)=O (stereo unspecified)
75 to 77	CCOc1cc(C#N)ccc1O
257 to 259	O=C(O)c1cc(N2CCOCC2)ccn1
182 to 186	Nc1c(F)cccc1C(=O)O
104 to 106	Nc1ccc(-c2ncco2)cc1
155 to 157	Cc1c(N)cccc1C(=O)N1CCSCC1
316 to 318	Cc1cc(C)c2c(C#N)c[nH]c2n1
92 to 94	CCOC(=O)c1ncsc1NC
134 to 136	O=C(O)C1CC1c1cc(Cl)cc(Cl)c1 (stereo unspecified)
123 to 127	CCN(CC)S(=O)(=O)c1ccc(N2CC(C(=O)O)CC2=O)cc1 (stereo unspecified)
61 to 63	Nc1ccc(OCc2cccs2)cc1
210 to 212	O=C(O)c1cc(-c2ccccc2)nc2c1cnn2Cc1cccnc1
120 to 122	CCNC(=O)NCc1ccc(N)cc1
99 to 101	N#CCN1CCN(c2ncccn2)CC1
77 to 79	COc1cccc(CO)c1OC(F)F
160 to 162	O=C(O)c1cc(S(=O)(=O)Cl)cc(Br)c1Cl
108 to 110	O=C(O)c1ccccc1OCc1cccc(Br)c1
155 to 157	Cc1ccc(O)c(C(=O)N2CCSCC2)c1
43 to 45	Brc1ccc(Cn2cccn2)cc1
122 to 124	Cc1cc(Cl)ccc1OC(C(=O)O)c1ccccc1 (stereo unspecified)
178 to 180	Cc1n[nH]c(C)c1S(=O)(=O)N1CCC(C)CC1
77 to 79	CCOC(=O)c1csc(CC#N)n1
119 to 121	Nc1cc(S(=O)(=O)NC2CC2)ccc1O

melting point [°C]	SMILES
182 to 184	CCOc1ccc(OCCOc2ccc(C=CC(=O)O)cc2OCC)cc1
105 to 107	COC(=O)c1cc(S(=O)(=O)Cl)c(Br)cc1F
113 to 115	CN(C)C(=O)c1cc(Oc2ccc(N)cc2)ccn1
95 to 97	COc1cc(C#N)ccc1OCCCl
86 to 88	O=S(=O)(Cl)c1csc(-c2ccccc2)n1
209 to 211	O=C1NC(=O)C(Cc2ccccc2)(c2ccccc2)N1 (stereo unspecified)
199 to 201	Cc1cccn2cc(COc3ccccc3C(=O)O)nc12
276 to 278	COC(=O)c1sc2nc(CCl)[nH]c(=O)c2c1C
113 to 115	CC(=O)Nc1ccc(N)c(Cl)c1
127 to 129	COc1cc(C=O)ccc1OCC(=O)c1ccccc1
100 to 102	Nc1cc(-c2ccc(F)cc2)no1
60 to 64	CC(O)c1cc(Cl)ccc1Cl (stereo unspecified)
101 to 103	Cn1ccnc1C(O)CCc1ccccc1 (stereo unspecified)
124 to 126	CCOC(=O)c1ccc(S(=O)(=O)N2CCCC2C(=O)O)o1 (stereo unspecified)
87 to 89	COc1ccc(N)cc1OCC(=O)NC1CC1
46 to 48	CCOC(=O)C(=O)c1ncc(Cl)n1C
227 to 229	Cc1nnc2c(N)cc(Cl)nn12
177 to 179	C=CCn1c(=O)c2ccccc2n2c(S)nnc12
139 to 141	COC(=O)c1cc(SC(=O)N(C)C)c(OC)cc1[N+](=O)[O-]
149 to 151	Clc1cc(Cl)c2c(n1)NCC2
55 to 57	NCc1nnc2n1CC(C(F)(F)F)CC2 (stereo unspecified)
127 to 129	CNC(=O)c1ccnc(F)c1
266 to 268	Cc1cc(C(=O)O)cc(S(N)(=O)=O)c1C
124 to 126	N#Cc1ccc(Oc2cccc([N+](=O)[O-])c2)cc1

melting point [°C]	SMILES
93 to 95	O=C(O)C1CC(=O)N(C2CC2)C1 (stereo unspecified)
115 to 117	Nn1cnnc1-c1ccccc1
199 to 201	O=C(O)c1nc(-c2cccs2)n(-c2ccccc2)n1
230 to 232	Cc1ccccc1Nc1nnc(S)s1
59 to 61	O=S(=O)(Cl)c1cnn(C2CCOCC2)c1
155 to 157	N#Cc1c(OCCCO)n[nH]c1N
230 to 232	COc1ccc(C(=O)O)cc1S(=O)(=O)NCc1ccc(Cl)cc1
308 to 310	O=Cc1cc2ccccc2nc1O
40 to 42	CN(C)Cc1cccc(N)c1
342 to 344	Cc1c(C(=O)O)sc2nc(Cc3ccccc3)[nH]c(=O)c12
129 to 131	CCCn1c(C)nnc1S
137 to 139	COc1ccc(CNS(=O)(=O)c2c[nH]nc2N)cc1
74 to 76	CC(C)Oc1ccc(CCC(=O)O)cc1
90 to 91	O=Cc1cn(Cc2ccccc2)nc1-c1cccs1
54 to 56	CN(CC(=O)O)S(C)(=O)=O
137 to 139	CC(C)c1ccccc1NC(N)=S
119 to 122	CCOc1ccc(C(=O)NCC(=O)O)cc1OCC
179 to 181	CC1(C)Nc2ccccc2NC1=O
90 to 92	O=C(C1=CNCCC1)c1ccccc1
152 to 154	Nc1cnn(-c2ccncc2)c1
224 to 226	NS(=O)(=O)c1nnc[nH]1
65 to 67	CC(C)(C)OC(=O)N1CCN(c2ncccc2C#N)CC1
152 to 154	Nc1n[nH]c2ccccc12
199 to 201	CN(C)S(=O)(=O)c1cc(C(=O)O)ccc1F

melting point [°C]	SMILES
220 to 222	NC(=O)c1nn(CC(=O)O)c(=O)c2ccccc12
129 to 131	O=C(O)c1ccccc1OCc1ccccc1Br
79 to 81	COC(=O)c1cc(N)cc(I)c1
142 to 144	NC(=O)c1csc(Br)c1
59 to 61	CCc1cc2c(n1Cc1ccccc1)CCCC2=O
86 to 88	c1ccc(-c2cncc(-c3ccccc3)n2)cc1
215 to 217	O=C(O)c1ccc(Oc2ccc(Cl)cn2)cc1
115 to 117	CN(CC(=O)Nc1ccccc1Cl)C(=O)CCl
117 to 119	O=c1ccc2cc(S(=O)(=O)Cl)ccc2o1
94 to 96	CSc1ccc(OC(C)C(=O)O)cc1 (stereo unspecified)
192 to 194	CC(C)NC(=O)Nc1ccc(O)c(C(=O)O)c1
147 to 149	O=C(O)c1ccc(-c2ccco2)o1
204 to 206	Cc1ccc(OCc2ccc(C(=O)O)o2)cc1
193 to 195	Sc1nnnn1CCc1ccccn1
169 to 171	CCCc1cc(C(=O)O)[nH]n1
77 to 79	CC(C)(C)OC(=O)NC1(CN)CCCCCC1
158 to 160	COC(=O)c1sc(N)nc1C(C)(C)C
165 to 167	O=C(Nc1cccc(O)c1)c1ccsc1
219 to 221	Cc1nn(-c2ccc(F)cc2)c(C)c1C(=O)O
59 to 61	OCc1nccc(Cl)c1Cl
96 to 98	NNC(=S)NC1CCC1

SMILES	melting point [°C]
CC(C)(C)C(Br)C(=O)O (stereo unspecified)	62 to 64
CSc1ccc(CN2CCNCC2)cc1	53 to 55
c1ccc(C2COCCN2)cc1 (stereo unspecified)	74 to 76
O=C(CCl)c1ccc(F)c(F)c1	37 to 39
OCc1ccc(CCl)cc1	55 to 57
